Measured values taken from US10669238B2, “Irreversible bruton's tyrosine kinase inhibitor” (HEFEI INSTITUTES OF PHYSICAL SCIENCE, CHINESE ACADEMY OF …, priority 2016, dated 2020).

Biological target: BTK protein kinase (Homo sapiens, UniProt Q06187)
Assay: In vitro enzymatic activity against BTK (ADP-Glo)
Format: biochemical
Conditions: compound with BTK 4 hours at room temperature; ATP 10 μM, 37° C. 1 hour; values in nM
Procedure: In vitro enzymatic activity of the compounds against BTK was determined in a experimental assay of in vitro enzymatic activity using […] kit (purchased from Progema, USA).
9 μL of BTK protein kinase (at a concentration of 1.5 ng/μL) was used to react with compounds (1 μL) shown in the following table that were diluted three times in gradient at room temperature for 4 hours (the final concentration of the compound being 10 μM, 3 μM, 1 μM, 0.3 μM, 0.1 μM, 0.03 μM, 0.01 μM, 0.003 μM);
2 μL of ATP and 3 μL of the substrate Poly(4:1 Glu, Tyr)Peptide (Promega, USA) (the final concentrations being 10 μM and 0.2 μg/μL, respectively) were added to allow reaction at 37° C. for 1 hour;
5 μL of BTK kinase solution after reaction was taken and added into 5 μL of ADP-Glo™ (Promega, USA) reagent to allow reaction at room temperature for 40 mins so as to terminate the kinase reaction and exhaust the remaining ATP;
10 μL kinase detecting reagent was added to convert ADP to ATP, and newly synthesized ATP was detected using coupled luciferase/[…] reaction, then the IC50 values were calculated by using a plotting method based on the Envision reading.

Sequence of BTK protein kinase (Q06187 whole entry): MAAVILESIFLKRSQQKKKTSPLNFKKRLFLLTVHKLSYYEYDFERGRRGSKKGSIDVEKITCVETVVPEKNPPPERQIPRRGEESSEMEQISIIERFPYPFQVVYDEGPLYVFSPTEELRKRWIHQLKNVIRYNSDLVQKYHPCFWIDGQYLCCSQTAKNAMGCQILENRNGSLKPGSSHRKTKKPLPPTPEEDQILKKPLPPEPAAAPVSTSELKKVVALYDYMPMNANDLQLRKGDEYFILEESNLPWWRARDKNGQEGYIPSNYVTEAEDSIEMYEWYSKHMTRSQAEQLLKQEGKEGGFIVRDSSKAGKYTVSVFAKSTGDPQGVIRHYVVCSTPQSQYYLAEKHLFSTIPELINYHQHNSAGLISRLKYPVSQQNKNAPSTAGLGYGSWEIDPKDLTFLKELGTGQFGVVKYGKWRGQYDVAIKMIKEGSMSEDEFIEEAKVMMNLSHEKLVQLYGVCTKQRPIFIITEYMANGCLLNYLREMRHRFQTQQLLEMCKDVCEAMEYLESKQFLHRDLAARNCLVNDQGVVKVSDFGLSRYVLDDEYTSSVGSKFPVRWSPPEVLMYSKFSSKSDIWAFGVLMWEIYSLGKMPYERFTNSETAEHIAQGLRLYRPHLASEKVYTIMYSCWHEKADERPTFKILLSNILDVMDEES

SMILES | IC50 [nM]
C=CC(=O)Nc1cc(Nc2cc(-c3cccc(NC(=O)c4cc5ccccc5s4)c3C)cn(C)c2=O)ccc1C(=O)N1CCOCC1 [Compound 68, N-(3-(5-((3-acrylamide-4-(morpholin-4-carbonyl)phenyl)amino)-1-methyl-6-oxo-1,6-dihydropyridin-3-yl)-2-methylphenyl)benzo[b]thiophene-2-carboxamide] | 22
C=CC(=O)Nc1cc(Nc2cc(-c3cccc(NC(=O)c4cc5c(s4)CCCC5)c3C)cn(C)c2=O)ccc1C(=O)N1CCCC1 [Compound 69, N-(3-(5-((3-acrylamide-4-(pyrrolidin-1-carbonyl)phenyl)amino)-1-methyl-6-oxo-1,6-dihydropyridin-3-yl)-2-methylphenyl)-4,5,6,7-tetrahydrobenzo[b]thiophene-2-carboxamide] | 83.6
C=CC(=O)Nc1cc(Nc2cc(-c3cccc(NC(=O)c4cc(C)cs4)c3C)cn(C)c2=O)ccc1C(=O)N1CCOCC1 [Compound 70, N-(3-(5-((3-acrylamide-4-(morpholin-4-carbonyl)phenyl)amino)-1-methyl-6-oxo-1,6-dihydropyridin-3-yl)-2-methylphenyl)-4-methylthiophene-2-carboxamide] | 114
C=CC(=O)Nc1cc(Nc2cc(-c3cccc(NC(=O)c4ccc(C)s4)c3C)cn(C)c2=O)ccc1C(=O)N1CCOCC1 [Compound 71, N-(3-(5-((3-acrylamide-4-(morpholin-4-carbonyl)phenyl)amino)-1-methyl-6-oxo-1,6-dihydropyridin-3-yl)-2-methylphenyl)-5-methylthiophene-2-carboxamide] | 30
C=CC(=O)Nc1cc(Nc2cc(-c3cccc(NC(=O)c4ccc(C5CC5)cc4)c3C)cn(C)c2=O)ccc1N1CCN(C)CC1 [Compound 72, N-(3-(5-((3-acrylamide-4-(4-methylpiperazin-1-yl)phenyl)amino)-1-methyl-6-oxo-1,6-dihydropyridin-3-yl)-2-methylphenyl)-4-cyclopropylbenzoylamide] | 180
C=CC(=O)Nc1cc(Nc2cc(-c3cccc(NC(=O)c4ccc(N(C)C)cc4)c3C)cn(C)c2=O)ccc1N1CCOCC1 [Compound 73] | 24.9
C=CC(=O)Nc1cc(Nc2cc(-c3cccc(NC(=O)c4ccc(N(C)C)cc4)c3C)cn(C)c2=O)ccc1N1CCN(CC)CC1 [Compound 74, N-(3-(5-((3-acrylamide-4-(4-ethylpiperazin-1-yl)phenyl)amino)-1-methyl-6-oxo-1,6-dihydropyridin-3-yl)-2-methylphenyl)-4-(dimethylamino)benzoylamide] | 23
C=CC(=O)Nc1cc(Nc2cc(-c3cccc(NC(=O)c4cc5c(s4)CCCC5)c3C)cn(C)c2=O)ccc1N1CCN(C)CC1 [Compound 75, N-(3-(5-((3-acrylamide-4-(4-methylpiperazin-1-yl)phenyl)amino)-1-methyl-6-oxo-1,6-dihydropyridin-3-yl)-2-methylphenyl)-4,5,6,7-tetrahydrobenzo[b]thiophene-2-carboxamide] | 7
C=CC(=O)Nc1cc(Nc2cc(-c3cccc(NC(=O)c4cc5c(s4)CCCC5)c3C)cn(C)c2=O)ccc1N1CCN(CC)CC1 [Compound 76, N-(3-(5-((3-acrylamide-4-(4-ethylpiperazin-1-yl)phenyl)amino)-1-methyl-6-oxo-1,6-dihydropyridin-3-yl)-2-methylphenyl)-4,5,6,7-tetrahydrobenzo[b]thiophene-2-carboxamide] | 25
C=CC(=O)Nc1cc(Nc2cc(-c3cccc(NC(=O)c4cc5c(s4)CCCC5)c3C)cn(C)c2=O)ccc1N(C)C [Compound 77, N-(3-(5-((3-acrylamide-4-(dimethylamino)phenyl)amino)-1-methyl-6-oxo-1,6-dihydropyridin-3-yl)-2-methylphenyl)-4,5,6,7-tetrahydrobenzo[b]thiophene-2-carboxamide] | 101
C=CC(=O)Nc1cc(Nc2cc(-c3cccc(NC(=O)c4cc5c(s4)CCCC5)c3C)cn(C)c2=O)ccc1N1CCOCC1 [Compound 78, N-(3-(5-((3-acrylamide-4-morpholinophenyl)amino)-1-methyl-6-oxo-1,6-dihydropyridin-3-yl)-2-methylphenyl)4,5,6,7-tetrahydrobenzo[b]thiophene-2-carboxamide] | 119
C=CC(=O)Nc1cc(Nc2cc(-c3cccc(NC(=O)c4cc5c(s4)CCCC5)c3C)cn(C)c2=O)ccc1N1CCN(C(C)=O)CC1 [Compound 79, N-(3-(5-((4-(4-acetylpiperazin-1-yl)-3-acrylamidephenyl)amino)-1-methyl-6-oxo-1,6-dihydropyridin-3-yl)-2-methylphenyl)-4,5,6,7-tetrahydrobenzo[b]thiophene-2-carboxamide] | 82
C=CC(=O)Nc1cc(Nc2cc(-c3cccc(NC(=O)c4cc5c(s4)CCCC5)c3C)cn(C)c2=O)ccc1N1CCCC1 [Compound 80, N-(3-(5-((3-acrylamide-4-(pyrrolidin-1-yl)phenyl)amino)-1-methyl-6-oxo-1,6-dihydropyridin-3-yl)-2-methylphenyl)-4,5,6,7-tetrahydrobenzo[b]thiophene-2-carboxamide] | 83
C=CC(=O)Nc1cc(Nc2cc(-c3cccc(NC(=O)c4cc5ccccc5s4)c3C)cn(C)c2=O)ccc1N1CCN(C)CC1 [Compound 81, N-(3-(5-((3-acrylamide-4-(4-methylpiperazin-1-yl)phenyl)amino)-1-methyl-6-oxo-1,6-dihydropyridin-3-yl)-2-methylphenyl)-benzo[b]thiophene-2-carboxamide] | 28.9
C=CC(=O)Nc1cc(Nc2cc(-c3cccc(NC(=O)c4cc5ccccc5s4)c3C)cn(C)c2=O)ccc1N1CCOCC1 [Compound 82, N-(3-(5-((3-acrylamide-4-morpholinophenyl)amino)-1-methyl-6-oxo-1,6-dihydropyridin-3-yl)-2-methylphenyl)benzo[b]thiophene-2-carboxamide] | 98.8
C=CC(=O)Nc1cc(Nc2cc(-c3cccc(NC(=O)c4cc5c(s4)CCCC5)c3C)cn(C)c2=O)ccc1N1CCC(N(C)C)CC1 [Compound 83, N-(3-(5-((3-acrylamide-4-(4-(dimethylamino)piperidin-1-yl)phenyl)amino)-1-methyl-6-oxo-1,6-dihydropyridin-3-yl)-2-methylphenyl)-4,5,6,7-tetrahydrobenzo[b]thiophene-2-carboxamide] | 16.7
C=CC(=O)Nc1cc(Nc2cc(-c3cccc(NC(=O)c4cc5ccccc5s4)c3C)cn(C)c2=O)ccc1N1CCC(N(C)C)CC1 [Compound 84, N-(3-(5-((3-acrylamide-4-(4-(dimethylamino)piperidin-1-yl)phenyl)amino)-1-methyl-6-oxo-1,6-dihydropyridin-3-yl)-2-methylphenyl)benzo[b]thiophene-2-carboxamide] | 7.8
C=CC(=O)Nc1cc(Nc2cc(-c3cccc(NC(=O)c4cc5ccccc5s4)c3C)cn(C)c2=O)ccc1-n1cccn1 [Compound 85, N-(3-(5-((3-acrylamide-4-(1H-pyrazol-1-yl)phenyl)amino)-1-methyl-6-oxo-1,6-dihydropyridin-3-yl)-2-methylphenyl)benzo[b]thiophene-2-carboxamide] | 130
C=CC(=O)Nc1cc(Nc2cc(-c3cccc(NC(=O)c4cc5c(s4)CCCC5)c3C)cn(C)c2=O)ccc1-n1cccn1 [Compound 86, N-(3-(5-((3-acrylamide-4-(1H-pyrazol-1-yl)phenyl)amino)-1-methyl-6-oxo-1,6-dihydropyridin-3-yl)-2-methylphenyl)-4,5,6,7-tetrahydrobenzo[b]thiophene-2-carboxamide] | 9.9
